Laboratory results: PubChem BioAssay AID298 (DTP/NCI, 2004)
Several values for one entry are separate records, joined by “and”; a condition that tells them apart may be missing. Equal entries are not always repeated. Records with an inconclusive call do not appear.

Tested on: MX-1 breast xenograft, intrarenal, nude mice, tumor weight
Experiment: NCI In Vivo Anticancer Drug Screen. Data for tumor model Human Mammary Carcinoma MX-1 Xenograft (intrarenal inoculation) in NU/NU BALB/C (nude) mice
Conditions: endpoint: mean tumor weight change, higher = larger tumour
How it was run: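 Antitumor activity is expressed as a T/C ratio. The treated group's tumor size or survival is compared against the vehicle-treated control group in mice bearing transplanted tumors.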

[1] = dose: 150.0 mg/kg/injection, schedule: Q04DX003 (ip), vehicle: saline with Tween-80
[2] = dose: 300.0 mg/kg/injection, schedule: Q04DX003 (ip), vehicle: saline with Tween-80

CCNC=O
T/C (dose: 200.0 mg/kg/injection, schedule: Q01DX010 (sc), vehicle: saline): 85 % of control
T/C (dose: 400.0 mg/kg/injection, schedule: Q01DX010 (sc), vehicle: saline): 70 % of control
T/C (dose: 800.0 mg/kg/injection, schedule: Q01DX010 (sc), vehicle: saline): 27 % of control

N#CCS(=O)(=O)c1cccc[n+]1[O-]
T/C [1]: 77 % of control
T/C [2]: 67 % of control

Clc1ccc(CN2COc3c(ccc4cccnc34)C2)cc1Cl
T/C (dose: 100.0 mg/kg/injection, schedule: Q01DX010 (sc), vehicle: saline with Tween-80): 91 % of control
T/C (dose: 400.0 mg/kg/injection, schedule: Q01DX010 (sc), vehicle: saline with Tween-80): 71 % of control
T/C (dose: 800.0 mg/kg/injection, schedule: Q01DX010 (sc), vehicle: saline with Tween-80): 44 % of control

Cc1nc(N)nc(N)c1N1CCN(c2ccc(C(=O)NC(C(=O)O)C(=O)O)cc2)CC1
T/C (dose: 7.5 mg/kg/injection, schedule: Q04DX003 (ip), vehicle: Klucel + Tween-80): 63 % of control
T/C (dose: 15.0 mg/kg/injection, schedule: Q04DX003 (ip), vehicle: Klucel + Tween-80): 76 % of control
T/C (dose: 30.0 mg/kg/injection, schedule: Q04DX003 (ip), vehicle: Klucel + Tween-80): 76 % of control
T/C (dose: 60.0 mg/kg/injection, schedule: Q04DX003 (ip), vehicle: Klucel + Tween-80): 82 % of control

CO[C@H](/C(C)=C/C=C/C(C)=C/c1coc(C)n1)[C@H](C)[C@H]1C[C@@H](O)[C@@]2(C)O[C@H]2/C=C/[C@@H](C)[C@@H]2C[C@@H](CC(=O)O2)C[C@H]2O[C@@H]2C(=O)O1
T/C (dose: 0.13 mg/kg/injection, schedule: Q04DX003 (ip), vehicle: other): 62 % of control
T/C (dose: 0.2 mg/kg/injection, schedule: Q04DX003 (ip), vehicle: other): 67 % of control
T/C (dose: 0.25 mg/kg/injection, schedule: Q04DX003 (ip), vehicle: Klucel (hydroxypropylcellulose) (HPC)): 10 % of control
T/C (dose: 0.25 mg/kg/injection, schedule: Q04DX003 (sc), vehicle: Klucel (hydroxypropylcellulose) (HPC)): 46 % of control and 55 % of control and 63 % of control
T/C (dose: 0.3 mg/kg/injection, schedule: Q04DX003 (ip), vehicle: other): 55 % of control
T/C (dose: 0.44 mg/kg/injection, schedule: Q04DX003 (ip), vehicle: other): 27 % of control
T/C (dose: 0.5 mg/kg/injection, schedule: Q04DX003 (ip), vehicle: Klucel (hydroxypropylcellulose) (HPC)): 7 % of control
T/C (dose: 0.5 mg/kg/injection, schedule: Q04DX003 (sc), vehicle: Klucel (hydroxypropylcellulose) (HPC)): 35 % of control and 36 % of control and 41 % of control
T/C (dose: 1.0 mg/kg/injection, schedule: Q04DX003 (ip), vehicle: Klucel (hydroxypropylcellulose) (HPC)): 5 % of control
T/C (dose: 1.0 mg/kg/injection, schedule: Q04DX003 (sc), vehicle: Klucel (hydroxypropylcellulose) (HPC)): 4 % of control and 19 % of control

CC[C@@]1(O)C(=O)OCc2c1cc1n(c2=O)Cc2cc3c(N)cccc3nc2-1
T/C (dose: 0.72 mg/kg/injection, schedule: Q04DX003 (ip), vehicle: saline with Tween-80): 6 % of control
T/C (dose: 1.0 mg/kg/injection, schedule: Q04DX003 (ip), vehicle: saline with Tween-80): -97 % of control
T/C (dose: 1.2 mg/kg/injection, schedule: Q04DX003 (ip), vehicle: saline with Tween-80): -30 % of control
T/C (dose: 2.0 mg/kg/injection, schedule: Q04DX003 (ip), vehicle: saline with Tween-80): -92 % of control and -100 % of control
T/C (dose: 3.33 mg/kg/injection, schedule: Q04DX003 (ip), vehicle: saline with Tween-80): -100 % of control

O=C1CC2(C(=O)N1CN1CCOCC1)c1ccccc1-c1ccccc12
T/C (dose: 300.0 mg/kg/injection, schedule: Q04DX003 (ip), vehicle: Klucel (hydroxypropylcellulose) (HPC)): 97 % of control
T/C (dose: 600.0 mg/kg/injection, schedule: Q04DX003 (ip), vehicle: Klucel (hydroxypropylcellulose) (HPC)): 72 % of control

ClC1(Cl)Cc2ccccc21
T/C [1]: 109 % of control
T/C [2]: 109 % of control
T/C (dose: 600.0 mg/kg/injection, schedule: Q04DX003 (ip), vehicle: saline with Tween-80): 45 % of control

Cc1ccoc1
T/C (dose: 50.0 mg/kg/injection, schedule: Q01DX010 (ip), vehicle: saline with Tween-80): 102 % of control
T/C (dose: 100.0 mg/kg/injection, schedule: Q01DX010 (ip), vehicle: saline with Tween-80): 97 % of control
T/C (dose: 200.0 mg/kg/injection, schedule: Q01DX010 (ip), vehicle: saline with Tween-80): 104 % of control
